Measured values: US7846473B2, “Irinotecan preparation” (Terumo Kabushiki Kaisha, priority 2004, dated 2010)

Assays:
Assay type in all cases: in vivo
[1] = Retentivity in blood; details: female, plasma, iv; BALB/c mouse, 10 mg/kg i.v. tail, elapsed time 1 hr; read-out: Concentration in plasma of irinotecan hydrochloride
[2] = tested on: neutrophils and lymphocytes; test: Hemotoxicity in rat; details: i.v. tail vein
Experimental: Collecting blood of 0.4 mL from a cervical vein of the rat before and after injection; and after 2, 4, 6, 13, 20, and 27 days (for 4 weeks); the number of neutrophils and lymphocytes was measured with automated hematology analyzer (Sysmex XT-2000i, Sysmex). FIGS. 12 and 13 show the results.

[3] = tested on: human colon cancer cells (HCT116); test: Antitumor effect, human colon cancer HCT116 implanted in mouse; details: HCT116 in BALB/c nude mouse; for Inhibition rate (%) / Tumor weight (g, mean ± S.D.): 21 days after injection
Experimental: 2×10^6 cells/mouse of human colon cancer cells (HCT116) were implanted subcutaneously in left inguinal region of the mouse (BALB/c nude, ♂, 6 weeks old, Charles River Japan, Inc.). After implanting tumors, a presumptive tumor volume was calculated by ½·ab^2 (a represents a longitudinal diameter of a tumor and b represents a short axis diameter thereof) achieved to about 90 mm^3 in a day (Day 0). […] There were mice without injection of either agent as a control group.
A presumptive tumor volume and a body weight of a mouse were measured after 5, 8, 12, 16, and 21 days from the injection. Extracting tumors 21 days after the injection and measuring a weight thereof, further, an inhibition rate of tumor growth I.R. (%) was calculated by the formula as shown in Test Example 6.

SMILES: CCc1c2c(nc3ccc(OC(=O)N4CCC(N5CCCCC5)CC4)cc13)-c1cc3c(c(=O)n1C2)COC(=O)[C@]3(O)CC [(+)-(4S)-4,11-diethyl-4-hydroxy-9-[(4-piperidino-piperidino)carbonyloxy]-1H-pyrano[3′,4′:6,7]indolizino[1,2-b]quinolin-3,14(4H,12H)-dione]
- concentration at 1 h [1]: 390 ng/mL
- number of lymphocytes [2]: on a decline immediately after injection albeit only slightly
- tumor growth compared to the control group [3]: significant suppressive effect of tumor growth
- Inhibition rate (%) ([3]; 18.75 mg/kg i.v. Days 1, 5, 9): 39.0%
- Tumor weight (g, mean ± S.D.) ([3]; 18.75 mg/kg i.v. Days 1, 5, 9): 0.76 ± 0.06 g
- Inhibition rate (%) ([3]; 37.5 mg/kg i.v. Days 1, 5, 9): 43.4%
- Tumor weight (g, mean ± S.D.) ([3]; 37.5 mg/kg i.v. Days 1, 5, 9): 0.71 ± 0.08 g
- Inhibition rate (%) ([3]; 75 mg/kg i.v. Days 1, 5, 9): 57.4%
- Tumor weight (g, mean ± S.D.) ([3]; 75 mg/kg i.v. Days 1, 5, 9): 0.53 ± 0.14 g
- influence on body weight of the mouse ([3]; 18.75-75 mg/kg i.v. Days 1, 5, 9): did not influence the body weight of the mouse
